Where two headings read alike, the source gives them in different places.
Assays:
[1] = target: COVID-19 (nCoV-2019, SARS-CoV2) Mpro (Severe acute respiratory syndrome coronavirus 2, UniProt P0DTD1); assay: COVID-19 (nCoV-2019, SARS-CoV2) Mpro enzymatic assay; assay type: biochemical; details: 25 nM Mpro, 25 μM substrate; read-out: COVID-19 Mpro IC50
229E Mpro = 229E Mpro (Human coronavirus 229E, UniProt P0C6X1); assay: 229E Mpro enzymatic assay (standard methods, SARS-CoV2 Mpro assay given as exemplary); assay type: biochemical, human coronavirus (HCov) 229E
229E Mpro, sequence (P0C6X1 2966-3267): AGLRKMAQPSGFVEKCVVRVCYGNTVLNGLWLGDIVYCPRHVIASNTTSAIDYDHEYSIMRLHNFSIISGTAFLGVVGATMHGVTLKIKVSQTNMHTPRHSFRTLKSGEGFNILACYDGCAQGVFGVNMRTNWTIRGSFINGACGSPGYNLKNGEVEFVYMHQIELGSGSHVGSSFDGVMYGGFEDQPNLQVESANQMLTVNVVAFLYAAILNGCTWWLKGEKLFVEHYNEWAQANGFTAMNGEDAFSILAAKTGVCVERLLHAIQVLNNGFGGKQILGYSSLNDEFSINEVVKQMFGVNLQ
In short: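 IC50 for 229E Mpro by standard methods; exemplary SARS-CoV-2 protocol used C-His6-tagged Mpro from E. coli, 25 nM enzyme, 25 μM substrate (Km 13.5 μM), in Tris-HCl pH 7.3, NaCl, EDTA, TCEP, 0.1% BSA. Inhibition normalised to no-compound and full-effect controls; four-parameter fit.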

HCoV 229E = HCoV 229E cytopathic effect (CPE) assay, CellTiter Glo; assay type: cell-based, human coronavirus (HCov) 229E; details: protection of virus-induced CPE
Description: Example 238: Evaluation of antiviral activity of compounds against human coronavirus (HCov) 229E and OC43 in the cytopathic effect (CPE) assays
Compounds were assayed using standard methods against multiple coronaviral strains, including HCoV 229E and OC43 strains. The antiviral activity of compounds was calculated based on the protection of the virus-induced CPE at each concentration normalized by the virus control.
Cytopathic effect (CPE) was measured by CellTiter Glo following the manufacturer's manual. The antiviral activity of compounds was calculated based on the protection of the virus-induced CPE at each concentration normalized by the virus control.
Cell viability was measured with CellTiter Glo.

HCov OC43 = assay: HCoV OC43 cytopathic effect (CPE) assay, CellTiter Glo; assay type: cell-based, human coronavirus (HCov) OC43
[2] = Betacoronavirus 1, OC43, read-out: OC43 IC50 (uM) MEDIAN, median
[3] = read-out: OC43 IC50 (uM) MEDIAN, median

Row | SMILES | IC50 [1] [µM] | EC50 (229E Mpro; 229E Mpro EC50) [µM] | EC50 (HCoV 229E; unidentified human coronavirus) [µM] | IC50 (HCov OC43; [2]) [µM] | also measured
1 | N#CN1C[C@H](O)C[C@@H]1C(=O)N(c1ccc(C2CC2)c(F)c1)C(C(=O)NC1CCCCC1)c1cccnc1 (single isomer, unassigned) [Compound 767 Isomer 1] | < 2 | < 2 | 2 to 10 | < 2 | –
2 | CN(C)CCNC(=O)C(c1cccnc1)N(C(=O)[C@H]1CCCN1C#N)c1ccc(C(C)(C)C)cc1 (single isomer, unassigned) [Compound 435 Isomer 1] | 2 to 10 | < 2 | 2 to 10 | – | IC50 (HCov OC43; read-out: OC43 IC50 (uM) MEDIAN, median, listed as 435 Isomer 1): 2 to 10 µM
3 | CC(C)(C)c1ccc(N(C(=O)[C@H]2C[C@H](O)CN2C#N)C(C(=O)NC2CCCCC2)c2cccnc2)cc1 (single isomer, unassigned) [Compound 255 Isomer 2] | < 2 | – | – | – | EC50 (229E Mpro; read-out: 229E Mpro EC50): < 2 µM; EC50 (HCoV 229E; listed as 255 Isomer 2): < 2 µM
4 | CC(C)(C)c1ccc(N(C(=O)[C@H]2C[C@@H](Oc3ccccc3)CN2C#N)C(C(=O)NC2CCCCC2)c2cccnc2)cc1 (single isomer, unassigned) [307 Isomer 1] | < 2 | < 2 | < 2 | < 2 | –
5 | CC(C)(C)c1ccc(N(C(=O)[C@H]2CC(F)(F)CN2C#N)C(C(=O)NC2CCCCC2)c2cccnc2)cc1 (single isomer, unassigned) [Compound 876 Isomer 1] | 2 to 10 | < 2 | < 2 | – | IC50 (HCov OC43; read-out: OC43 IC50 (uM) MEDIAN, median, listed as 876 Isomer 1): 10 to 30 µM
6 | CC(C)(C)c1ccc(N(C(=O)[C@H]2C[C@@H](O)CN2C#N)C(C(=O)NCCN2CCOCC2)c2cccnc2)cc1 (single isomer, unassigned) [587 Isomer 2] | 2 to 10 | – | – | – | EC50 (229E Mpro; read-out: 229E Mpro EC50): < 2 µM; EC50 (HCoV 229E): 2 to 10 µM; IC50 (HCov OC43; [3]): 2 to 10 µM
7 | CC(C)(C)c1ccc(N(C(=O)[C@H]2CCCN2C#N)C(C(=O)NCC2COC2)c2cccnc2)cc1 (single isomer, unassigned) [Compound 419 Isomer 1] | < 2 | < 2 | 2 to 10 | 2 to 10 | –
8 | COCCNC(=O)C(c1cccnc1)N(C(=O)[C@H]1C[C@@H](O)CN1C#N)c1ccc(C(C)(C)C)cc1 (single isomer, unassigned) [627 Isomer 2] | 2 to 10 | – | – | – | EC50 (229E Mpro; read-out: 229E Mpro EC50): < 2 µM; EC50 (HCoV 229E): 2 to 10 µM; IC50 (HCov OC43; [3]): 10 to 30 µM
9 | C[C@@]1(O)C[C@H](C(=O)N(c2ccc(S(F)(F)(F)(F)F)cc2)C(C(=O)NC2CCC(F)(F)CC2)c2cccnc2)N(C#N)C1 (single isomer, unassigned) [Compound 1156 Isomer 1] | 2 to 10 | < 2 | < 2 | 2 to 10 | –
10 | CC(C)(C)c1ccc(N(C(=O)C2CS(=O)(=O)CCN2C#N)C(C(=O)NC2CCCCC2)c2cccnc2)cc1 (stereo not drawn) [Compound 226] | < 2 | < 2 | 2 to 10 | 2 to 10 | –
11 | CC(C)(C)c1ccc(N(C(=O)[C@H]2C[C@@H](O)CN2C#N)C(C(=O)NC2CCCC2)c2cccnc2)cc1 (single isomer, unassigned) [595 Isomer 1] | 2 to 10 | < 2 | 2 to 10 | 2 to 10 | –
12 | CC(C)(C)c1ccc(N(C(=O)[C@H]2CC(=O)CN2C#N)C(C(=O)NC2CCCCC2)c2cccnc2)cc1 (single isomer, unassigned) [Compound 278 Isomer 2] | 2 to 10 | – | 2 to 10 | – | EC50 (229E Mpro; read-out: 229E Mpro EC50): < 2 µM; IC50 (HCov OC43; [3]): 10 to 30 µM
13 | CC(C)(C)c1ccc(N(C(=O)[C@H]2COCCN2C#N)C(C(=O)NC2CCCCC2)c2cccnc2)cc1 (single isomer, unassigned) [Compound 202 Isomer 1] | < 2 | < 2 | < 2 | – | –
14 | N#CN1C[C@H](O)C[C@@H]1C(=O)N(c1ccc(C2CC2)cc1)C(C(=O)NC1CCCCC1)c1cccnc1 (single isomer, unassigned) [723 Isomer 2] | 10 to 30 | 2 to 10 | – | – | EC50 (HCoV 229E): 2 to 10 µM; IC50 (HCov OC43; [3]): 2 to 10 µM
15 | COC(C)(C)CNC(=O)C(c1cccnc1)N(C(=O)[C@H]1CCCN1C#N)c1ccc(C(C)(C)C)cc1 (single isomer, unassigned) [Compound 427 Isomer 2] | < 2 | < 2 | < 2 | – | IC50 (HCov OC43; read-out: OC43 IC50 (uM) MEDIAN, median, listed as 427 Isomer 2): 2 to 10 µM
16 | Cc1nc2ccc(N(C(=O)[C@H]3C[C@@H](O)CN3C#N)C(C(=O)NC3CCCCC3)c3cccnc3)cc2[nH]1 (stereo partly drawn) [Compound 759, (2R,4R)-1-cyano-N-(2-(cyclohexylamino)-2-oxo-1-(pyridin-3-yl)ethyl)-4-hydroxy-N-(2-methyl-1H-benzo[d]imidazol-6-yl)pyrrolidine-2-carboxamide] | > 30 | > 30 | < 2 | > 30 | –
17 | CO[C@@H]1C[C@H](C(=O)N(c2ccc(C(C)(C)C)cc2)C(C(=O)NC2CCCCC2)c2cccnc2)N(C#N)C1 (single isomer, unassigned) [Compound 292 Isomer 2] | < 2 | – | < 2 | – | EC50 (229E Mpro; read-out: 229E Mpro EC50): < 2 µM; IC50 (HCov OC43; [3]): < 2 µM
18 | Cn1cnnc1C(C(=O)NC1CCCCC1)N(C(=O)[C@H]1C[C@@H](O)CN1C#N)c1ccc(C(C)(C)C)cc1 (single isomer, unassigned) [659 Isomer 1] | 2 to 10 | < 2 | < 2 | – | IC50 (HCov OC43; [3]): 10 to 30 µM
19 | CN1CCN(C(=O)C(c2cccnc2)N(C(=O)[C@H]2CCCN2C#N)c2ccc(C(C)(C)C)cc2)CC1 (mixture of isomers) [Compound 967, (2R)—N-(4-(tert-butyl)phenyl)-1-cyano-N-(2-(4-methylpiperazin-1-yl)-2-oxo-1-(pyridin-3-yl)ethyl)pyrrolidine-2-carboxamide] | 2 to 10 | < 2 | 2 to 10 | 2 to 10 | –
20 | C[C@H]1CC[C@H](C(=O)N(c2ccc(C(C)(C)C)cc2)C(C(=O)NC2CCCCC2)c2cccnc2)N1C#N (single isomer, unassigned) [Compound 247 Isomer 1] | 2 to 10 | < 2 | < 2 | – | –
21 | Cc1c[nH]c2cc(N(C(=O)[C@H]3C[C@@H](O)CN3C#N)C(C(=O)NC3CCC(F)(F)CC3)c3cncc(F)c3)ccc12 (single isomer, unassigned) [Compound 747b Isomer 1] | < 2 | < 2 | 2 to 10 | < 2 | –
22 | CC(C)(C)c1ccc(N(C(=O)[C@H]2C[C@@H](O)CN2C#N)C(C(=O)NC2CCCCC2)c2cccnc2)cc1 (single isomer, unassigned) [Compound 254 Isomer 1] | 2 to 10 | – | – | – | EC50 (229E Mpro; read-out: 229E Mpro EC50): < 2 µM; EC50 (HCoV 229E): 2 to 10 µM
23 | CC(C)(C)c1ccc(N(C(=O)[C@H]2C[C@@H](O)CN2C#N)C(C(=O)NC2CCCCC2)c2cccnc2)cc1 (single isomer, unassigned) [Compound 254] | < 2 | < 2 | < 2 | – | –
24 | CC1(C(=O)N(c2ccc(C(C)(C)C)cc2)C(C(=O)NC2CCCCC2)c2cccnc2)CN(C#N)C1 (stereo not drawn) [Compound 128, N-(4-tert-butylphenyl)-1-cyano-N-[2-(cyclohexylamino)-2-oxo-1-(3-pyridyl)ethyl]-3-methyl-azetidine-3-carboxamide] | 10 to 30 | 2 to 10 | 2 to 10 | – | –
25 | CC(C)(C)c1ccc(N(C(=O)[C@H]2C[C@H](O)CN2C#N)C(C(=O)NC2CCCCC2)c2cccnc2)cc1 (single isomer, unassigned) [Compound 255 Isomer 1] | 2 to 10 | < 2 | – | – | EC50 (HCoV 229E; listed as 255 Isomer 1): 10 to 30 µM

— US20220380347A1, “INHIBITORS OF CYSTEINE PROTEASES AND METHODS OF USE THEREOF” (Pardes Biosciences, Inc., priority 2020, published 2022)
